Measurements published in patent US5192786A, “Substituted biphenylalkoxyamines” (Ortho Pharmaceutical Corporation, priority 1990, dated 1993).
Values after ≈ are worked out from the molar mass of the structure shown. Structures can show the parent of a compound that is named as a salt. Where two headings read alike, the source gives them in different places.

Key:
[1] = test system: cAMP stimulated parietal cell; assay: Isolated parietal cell assay, inhibition of 14C-aminopyrine accumulation, dibutyryl cAMP stimulated; format: cell-based, rabbit; conditions: Oryctolagus cuniculus, 20 min, read-out: Isolated Parietal Cells IC50 vs cAMP
Description: (§1) The isolated parietal cell assay was conducted using the procedures of Batzri, S. et al., Biochemica et Biophysica Acta 508, 328 (1978) and Soll, A.H. Am. J. Physiol. 238, G366 (1980). Basically, parietal cells were isolated from the fundic mucosa of rabbit stomachs by a four-stage collagenase digestion process. The supernatant fractions from the last two stages of this process contain the individual parietal cells. This cell suspension was centrifuged and reconstituted in a modified Hank's buffer to contain 1-2×10^6 cells/ml. […] This accumulation was stimulated by histamine and was blocked by H2 antagonists. The cells were incubated with 0.4-0.5×10^6 cpm ^14 C-AP, with various concentrations of histamine as a stimulant, 1×10^-5 M isobutylmethylxanthine, and the test compound added in a 20 μl volume of buffer or DMSO. The flasks were incubated in a shaking water bath at 37° C. for 20 minutes. Two aliquots were then taken from each flask and cell pellets were collected by centrifugation. The pellets were solubilized with Protosol (New England Nuclear) and radioactivity determined by liquid scintillation spectrometry. Data are presented as the IC50 vs hist, the concentration of compound required to inhibit ^14 C-AP accumulation in the histamine stimulated parietal cell by 50%.
When dibutyryl cAMP was used to stimulate the cells instead of histamine, a similar inhibition of ^14 C-AP accumulation was measured and the data are presented as the IC50 vs cAMP, the concentration of compound required to inhibit ^14 C-AP accumulation in the cAMP stimulated parietal cell by 50%.

[2] = test system: histamine stimulated parietal cell; assay: Isolated parietal cell assay, inhibition of 14C-aminopyrine accumulation, histamine stimulated; format: cell-based, rabbit; conditions: Oryctolagus cuniculus, 20 min, read-out: Isolated Parietal Cells IC50 vs his
Description: as §1

Candida albicans = assay: In vitro antimicrobial activity, minimal inhibitory concentration (agar dilution), Candida albicans; format: cell-based, Candida albicans ATC 10231; conditions: read-out: Minimal inhibitory concentration, Candida albicans
Description: (§2) A 0.5 mg/ml stock solution of each Example compound was prepared in an appropriate solvent. From this stock, dilutions were prepared in solvent, and 0.2 ml aliquots of the stock and dilutions were added to tubes containing 19.8 ml of Mueller Hinton agar (46°-50° C.). The mixtures were poured into 100 by 15 mm petri dishes and allowed to solidify.
(§3) The test organisms (Candida albicans ATC 10231 and Trichophyton mentagrophytes ATC 22839) were diluted from frozen stock cultures. Inocula were diluted with sterile solution containing 0.1% peptone in water to contain approximately 2×10^5 […] (CFUs) per ml. Plate counts were performed on 1 mL of all inocula.
(§4) Each plate and unadulterated agar growth control was inoculated with the inocula prepared above using a Steer's Replicator method. Plates were then incubated at 32° C. Observations for growth were made at 48 hours.
(§5) The results of this test are reported below in Table 1 as compared to the known antifungal agents, miconazole nitrate and terconazole.

[3] = test system: Trichophyton mentagrophytes; assay: In vitro antimicrobial activity, minimal inhibitory concentration (agar dilution), Trichophyton mentagrophytes; format: cell-based, Trichophyton mentagrophytes ATC 22839; conditions: Mueller Hinton agar, 32° C., 48 hours, complete inhibition of growth
Description: as §2, §3, §4, §5

General CNS Behavior = format: in vivo, Male CD1 mice; conditions: 100 mg/kg, p.o.
[4] = In vivo anticonvulsant activity, Antimetrazol (pentylenetetrazol-induced convulsions); set-up: species or system Male CD1 mice; key: +: Active; ±: Active, but weak; -: Inactive at this dose; conditions: p.o., 125 mg/kg pentylenetetrazol s.c. challenge; for Anticonvulsant profile, Antimetrazol (10): 10 mg/kg; for Anticonvulsant profile, Antimetrazol (100): 100 mg/kg
Description: Male CD1 mice, fasted at least 16 hours, were divided into groups of 10 and test compounds or vehicle were administered orally by gavage. The vehicle used was 0.5% aqueous methylcellulose solution containing 0.4% (v/v) of Tween 80. One hour later (or at time of suspected peak activity), the mice were challenged with 125 mg/kg of pentylenetetrazol, administered subcutaneously. Pentylenetetrazol was dissolved in 0.9% sodium chloride solution, and the dosage volume for administration of test compounds or the convulsant challenge was 10 ml/kg. Animals were housed individually for observation of convulsions for a period of 30 minutes.
Pentylenetetrazol-induced convulsions in vehicle-treated mice consist of mixed-clonic/tonic seizures. Tonic hindlimb extension and death are terminal consequences. Test compounds that block the hindlimb tonic extensor component of the convulsions in at least 50% of treated mice were considered active. ED50 values of active compounds may be calculated by the method of probits (Finney, 1971).

[5] = In vivo anticonvulsant activity, Antielectroshock; set-up: species or system Male CD1 mice; key: +: Active; ±: Active, but weak; -: Inactive at this dose; conditions: p.o.; for Anticonvulsant profile, Antielectroshock (10): 10 mg/kg; for Anticonvulsant profile, Antielectroshock (100): 100 mg/kg
[6] = In vivo antisecretory activity, gastric secretion in pylorus ligated rats (acid output); set-up: species or system male Charles River Sprague Dawley derived rats; conditions: Rattus norvegicus, 4 h; 20 mpk, po; four hours after ligation; read-out: Pylorous Ligated Rats, effect on acid output compared to control
[7] = dibutyryl cAMP stimulated, 14C-aminopyrine accumulation, 37° C., 20 minutes
[8] = histamine stimulated, 14C-aminopyrine accumulation, 37° C., 20 minutes
[9] = Mueller Hinton agar, 32° C., 48 hours, complete inhibition of growth

Compound | IC50 [1, 7] | IC50 [2, 8] | MIC (Candida albicans; [9]) | MIC [3] | General CNS Behavior (General CNS Behavior) | Anticonvulsant profile, Antimetrazol (10) [4] | Anticonvulsant profile, Antimetrazol (100) [4] | Anticonvulsant profile, Antielectroshock (10) [5] | Anticonvulsant profile, Antielectroshock (100) [5] | change in vivo at 20 mg/kg [6] | MIC (Candida albicans; 48 h) | IC50 [1] | IC50 [2]
c1ccc(-c2ccc(OCCCCCn3cncn3)cc2)cc1 [Example 10, hydrochloride] | < 10000 nM | < 10000 nM | > 50 µg/mL | 10 µg/mL |  |  |  |  |  |  |  |  | 
Cl.c1ccc(-c2ccc(OCCCn3ccnc3)cc2)cc1 [Example 8, 1-(1H-Imidazol-1-ylpropoxy)-4-phenylbenzene hydrochloride] | 320 nM | 230 nM | 1 µg/mL | 1 µg/mL | Wk CNS Depr | - | ± | - | ± | -33% |  |  | 
CNC(=C[N+](=O)[O-])NCCSCc1ccc(CN(C)C)o1 [Ranitidine, ranitidine, reference compound] | > 100000 nM | 40 nM |  |  |  |  |  |  |  |  |  |  | 
C(=C\c1ccc(OCCCCn2ccnc2)cc1)/c1ccccc1 [Example 1, hydrochloride] | 450 nM | 450 nM | > 50 µg/mL | 50 µg/mL |  |  | - |  | - | -32% |  |  | 
Clc1cccc(/C=C/c2ccc(OCCCCn3ccnc3)cc2)c1 [Example 5, hydrochloride] | 100 nM | 180 nM | > 50 µg/mL | > 50 µg/mL |  |  |  |  |  | -12% |  |  | 
c1ccc(Cc2ccc(OCCCn3ccnc3)cc2)cc1 [Example 12, 1-[4-(1H-Imidazol-1-ylpropoxyphenyl)-1-phenylmethane hydrochloride] | 300 nM | 140 nM | 50 µg/mL | 10 µg/mL | Mod CNS Depr | - | + | - | + | -51% |  |  | 
C(=C\c1ccc(OCCCn2ccnc2)cc1)/c1ccccc1.Cl [Example 2, (E)-4-(1H-Imidazol-1-yl)propoxystilbene hydrochloride] | 270 nM | 160 nM | > 50 µg/mL | 10 µg/mL |  | - | + | - | + | -4% |  |  | 
Clc1ccc(COC(Cn2ccnc2)c2ccc(Cl)cc2Cl)c(Cl)c1 (stereo not drawn) [Miconazole Nitrate, miconazole nitrate, reference compound] |  |  |  | 5 µg/mL |  |  |  |  |  |  | 1 µg/mL |  | 
CN/C(=N/CCSCc1nc[nH]c1C)NC#N [Cimetidine, cimetidine, reference compound] |  |  |  |  |  |  |  |  |  |  |  | > 100000 nM | 820 nM
CC(C)N1CCN(c2ccc(OCC3COC(Cn4cncn4)(c4ccc(Cl)cc4Cl)O3)cc2)CC1 (stereo not drawn) [Terconazole, terconazole, reference compound] |  |  | 0.1 µg/mL (≈ 0.188 µM) | 50 µg/mL (≈ 93.9 µM) |  |  |  |  |  |  |  |  | 
CCCN(CCC)CCCCOc1ccc(-c2ccccc2)cc1.Cl [Example 7, 1-(Dipropylaminobutoxy)-4-phenylbenzene hydrochloride] | 260 nM | 120 nM | 50 µg/mL | 1 µg/mL |  | - | ± | - | ± | -45% |  |  | 
Cl.c1ccc(-c2ccc(OCCCCn3ccnc3)cc2)cc1 [Example 6, 1-(1H-Imidazol-1-ylbutoxy)-4-phenylbenzene hydrochloride] | 160 nM | 170 nM | 1 µg/mL | 1 µg/mL | Wk CNS Depr | - | ± | - | ± | -24% |  |  | 
Cl.O=C(c1ccc(Cl)cc1)c1ccc(OCCCn2ccnc2)cc1 [Example 11, 4'-Chloro-4-(1H-imidazol-1-ylpropoxy) benzophenone hydrochloride] | 280 nM | 280 nM | > 50 µg/mL | 1 µg/mL |  |  | - |  | - | -35% |  |  | 
CCCN(CCC)CCCOc1ccc(/C=C/c2cccc(OC)c2)cc1 [Example 3, (E)-3'-Methoxy-4-dipropylamino-propoxystilbene hydrochloride] | 110 nM | 100 nM | 50 µg/mL | 50 µg/mL |  | - | + |  | - | -92% |  |  | 
Cl.c1ccc(-c2ccc(OCCCCCn3ccnc3)cc2)cc1 [Example 9, 1-(1H-Imidazol-1-ylpentoxy)-4-phenylbenzene hydrochloride] | 110 nM | 90 nM | 50 µg/mL | 10 µg/mL |  |  |  | - |  | -54% |  |  | 
